Results from ChEMBL document CHEMBL4376834, “Discovery of 4H-Chromen-4-one Derivatives as a New Class of Selective Rho Kinase (ROCK) Inhibitors, which Showed Potent Activity in ex Vivo Diabetic Retinopathy Models” (J Med Chem, 2019).

Experiments:
[1] = target: cAMP-dependent protein kinase catalytic subunit PRKX (Homo sapiens, UniProt P51817); assay: Inhibition of recombinant human full length PrKX using RRRLSFAEPG as substrate incubated for 40 mins in presence of [gamma33P]ATP by radiometric scintillation counting analysis
[2] = target: Serine/threonine-protein kinase Nek9 (Homo sapiens, UniProt Q8TD19); assay: Inhibition of recombinant human NEK9 (1 to 324 residues) using myelin basic protein as substrate measured after 40 mins in presence of [gamma33P]ATP by radiometric scintillation counting analysis
[3] = target: Serine/threonine-protein kinase 24 (Homo sapiens, UniProt Q9Y6E0); assay: Inhibition of recombinant human MST3 (1 to 304 residues) using ERMRPRKRQGSVR as substrate measured after 40 mins in presence of [gamma33P]ATP by radiometric scintillation counting analysis
[4] = target: ALK tyrosine kinase receptor (Homo sapiens, UniProt Q9UM73); assay: Inhibition of human recombinant ALK (1058 to end residues) using KKKSPGEYVNIEF as substrate incubated for 40 mins in presence of [gamma-33P]ATP by radiometric scintillation counting analysis
[5] = target: Cyclin-dependent kinase 13/Cyclin-K (Homo sapiens, UniProt Q14004); assay: Inhibition of recombinant full length human CDK13/cyclinK using RSRSRSRSRSRSR as substrate incubated for 120 mins in presence of [gamma-33ATP] by radiometric scintillation counting analysis; assay type: protein-complex assay
[6] = target: Mast/stem cell growth factor receptor Kit (Homo sapiens, UniProt P10721, D816V); assay: Inhibition of recombinant human C-Kit D816V mutant (544 to end residues) using poly(Glu, Tyr) 4:1 as substrate incubated 40 mins in presence of [gamma-33ATP] by radiometric scintillation counting analysis
[7] = target: Macrophage-stimulating protein receptor (Homo sapiens, UniProt Q04912); assay: Inhibition of recombinant human Ron (983 to end residues) using GGMEDIYFEFMGGKKK as substrate incubated for 40 mins in presence of [gamma33P]ATP by radiometric scintillation counting analysis
[8] = target: Serine/threonine-protein kinase Chk2 (Homo sapiens, UniProt O96017); assay: Inhibition of recombinant human CHK2 (5 to end residues) using KKKVSRSGLYRSP as substrate incubated for 40 mins in presence of [gamma-33ATP] by radiometric scintillation counting analysis
Sequence of Serine/threonine-protein kinase Chk2 (O96017 whole entry, the tested form may be a part): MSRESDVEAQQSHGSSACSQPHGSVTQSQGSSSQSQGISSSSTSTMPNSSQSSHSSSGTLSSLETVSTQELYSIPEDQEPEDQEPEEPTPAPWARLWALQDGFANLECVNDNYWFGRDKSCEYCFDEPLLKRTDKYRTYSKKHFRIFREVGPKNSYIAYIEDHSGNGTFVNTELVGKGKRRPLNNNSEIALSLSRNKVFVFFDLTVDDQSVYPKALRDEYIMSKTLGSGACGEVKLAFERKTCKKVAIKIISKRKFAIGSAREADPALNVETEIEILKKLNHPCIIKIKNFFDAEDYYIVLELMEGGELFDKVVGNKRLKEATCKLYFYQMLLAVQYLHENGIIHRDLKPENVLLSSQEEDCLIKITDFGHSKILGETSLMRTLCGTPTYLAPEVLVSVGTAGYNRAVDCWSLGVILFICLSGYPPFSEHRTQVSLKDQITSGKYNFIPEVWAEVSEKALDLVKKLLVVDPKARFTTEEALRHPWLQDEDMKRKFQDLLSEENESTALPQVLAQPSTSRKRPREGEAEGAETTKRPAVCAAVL

[9] = target: Serine/threonine-protein kinase WNK1 (Homo sapiens, UniProt Q9H4A3); assay: Inhibition of recombinant human WNK1 (1 to 491 residues) using myelin basic protein as substrate incubated for 40 mins in presence of [gamma33P]ATP by radiometric scintillation counting analysis
[10] = target: Receptor tyrosine-protein kinase erbB-2 (Homo sapiens, UniProt P04626, G778D); assay: Inhibition of recombinant human ERBB2 G778D (676 to end residues) using poly(Glu, Tyr) 4:1 as substrate after 40 mins in presence of [gamma-33ATP] by radiometric scintillation counting analysis
[11] = target: Dual specificity protein kinase CLK4 (Homo sapiens, UniProt Q9HAZ1); assay: Inhibition of recombinant human CLK4 (128 to end residues) using YRRAAVPPSPSLSR as substrate incubated 40 mins in presence of [gamma-33ATP] by radiometric scintillation counting analysis
[12] = target: Tyrosine-protein kinase Fes/Fps (Homo sapiens, UniProt P07332); assay: Inhibition of recombinant human FES (2 to end residues) using poly(Glu, Tyr) 4:1 as substrate after 40 mins in presence of [gamma-33ATP] by radiometric scintillation counting analysis
[13] = target: Fibroblast growth factor receptor 3 (Homo sapiens, UniProt P22607); assay: Inhibition of recombinant human FGFR3 (447 to 761 residues) using poly(Glu, Tyr) 4:1 as substrate after 40 mins in presence of [gamma-33ATP] by radiometric scintillation counting analysis
Sequence of Fibroblast growth factor receptor 3 (P22607 whole entry, the tested form may be a part): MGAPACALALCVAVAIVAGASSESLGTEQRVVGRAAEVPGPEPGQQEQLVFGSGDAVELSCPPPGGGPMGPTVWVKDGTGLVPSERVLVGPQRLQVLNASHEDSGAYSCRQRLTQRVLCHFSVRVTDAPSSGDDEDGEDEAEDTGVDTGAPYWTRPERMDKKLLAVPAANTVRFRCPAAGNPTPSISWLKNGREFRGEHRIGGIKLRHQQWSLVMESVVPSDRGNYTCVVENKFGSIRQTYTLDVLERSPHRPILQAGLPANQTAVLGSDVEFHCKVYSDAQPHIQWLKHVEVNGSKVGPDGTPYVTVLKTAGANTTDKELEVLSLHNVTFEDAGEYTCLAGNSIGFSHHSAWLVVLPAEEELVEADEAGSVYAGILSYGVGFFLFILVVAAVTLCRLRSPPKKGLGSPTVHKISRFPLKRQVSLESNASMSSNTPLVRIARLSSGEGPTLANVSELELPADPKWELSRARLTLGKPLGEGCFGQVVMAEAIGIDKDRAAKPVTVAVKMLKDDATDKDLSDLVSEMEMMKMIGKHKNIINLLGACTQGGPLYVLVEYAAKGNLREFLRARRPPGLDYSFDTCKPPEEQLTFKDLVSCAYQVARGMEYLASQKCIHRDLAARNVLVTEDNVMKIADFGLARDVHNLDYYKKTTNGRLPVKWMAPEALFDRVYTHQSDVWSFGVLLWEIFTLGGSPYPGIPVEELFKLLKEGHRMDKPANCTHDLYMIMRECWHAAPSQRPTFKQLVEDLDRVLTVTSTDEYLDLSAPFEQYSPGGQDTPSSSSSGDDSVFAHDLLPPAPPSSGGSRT

[14] = Inhibition of human PKA using Kemptide as substrate incubated for 40 mins in presence of [gamma-33P]ATP by radiometric scintillation counting analysis
[15] = Inhibition of human PIP5K1
[16] = target: 5'-AMP-activated protein kinase catalytic subunit alpha-2 (Homo sapiens, UniProt P54646); assay: Inhibition of human full length AMPKalpha2 recombinant using AMARAASAAALAR as substrate incubated for 40 mins in presence of [gamma-33ATP] by radiometric scintillation counting analysis
Sequence of 5'-AMP-activated protein kinase catalytic subunit alpha-2 (P54646 whole entry, the tested form may be a part): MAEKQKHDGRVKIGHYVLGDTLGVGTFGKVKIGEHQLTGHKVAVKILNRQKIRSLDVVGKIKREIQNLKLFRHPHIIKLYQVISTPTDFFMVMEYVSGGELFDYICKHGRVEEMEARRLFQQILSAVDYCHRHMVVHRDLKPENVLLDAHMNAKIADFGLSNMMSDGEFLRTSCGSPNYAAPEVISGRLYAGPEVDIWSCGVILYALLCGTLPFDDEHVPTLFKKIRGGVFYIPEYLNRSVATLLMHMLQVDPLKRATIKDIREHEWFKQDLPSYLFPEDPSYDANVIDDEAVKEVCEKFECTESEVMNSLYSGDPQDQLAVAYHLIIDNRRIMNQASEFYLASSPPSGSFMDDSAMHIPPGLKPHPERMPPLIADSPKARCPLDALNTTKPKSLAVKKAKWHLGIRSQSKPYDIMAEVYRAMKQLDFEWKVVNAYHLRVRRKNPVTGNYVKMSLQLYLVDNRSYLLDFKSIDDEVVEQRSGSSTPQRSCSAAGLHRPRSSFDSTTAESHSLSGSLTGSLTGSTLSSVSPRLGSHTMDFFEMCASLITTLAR

[17] = target: Phosphatidylinositol 4-phosphate 3-kinase C2 domain-containing subunit alpha (Homo sapiens, UniProt O00443); assay: Inhibition of human PI3KC2
Sequence of Phosphatidylinositol 4-phosphate 3-kinase C2 domain-containing subunit alpha (O00443 whole entry, the tested form may be a part): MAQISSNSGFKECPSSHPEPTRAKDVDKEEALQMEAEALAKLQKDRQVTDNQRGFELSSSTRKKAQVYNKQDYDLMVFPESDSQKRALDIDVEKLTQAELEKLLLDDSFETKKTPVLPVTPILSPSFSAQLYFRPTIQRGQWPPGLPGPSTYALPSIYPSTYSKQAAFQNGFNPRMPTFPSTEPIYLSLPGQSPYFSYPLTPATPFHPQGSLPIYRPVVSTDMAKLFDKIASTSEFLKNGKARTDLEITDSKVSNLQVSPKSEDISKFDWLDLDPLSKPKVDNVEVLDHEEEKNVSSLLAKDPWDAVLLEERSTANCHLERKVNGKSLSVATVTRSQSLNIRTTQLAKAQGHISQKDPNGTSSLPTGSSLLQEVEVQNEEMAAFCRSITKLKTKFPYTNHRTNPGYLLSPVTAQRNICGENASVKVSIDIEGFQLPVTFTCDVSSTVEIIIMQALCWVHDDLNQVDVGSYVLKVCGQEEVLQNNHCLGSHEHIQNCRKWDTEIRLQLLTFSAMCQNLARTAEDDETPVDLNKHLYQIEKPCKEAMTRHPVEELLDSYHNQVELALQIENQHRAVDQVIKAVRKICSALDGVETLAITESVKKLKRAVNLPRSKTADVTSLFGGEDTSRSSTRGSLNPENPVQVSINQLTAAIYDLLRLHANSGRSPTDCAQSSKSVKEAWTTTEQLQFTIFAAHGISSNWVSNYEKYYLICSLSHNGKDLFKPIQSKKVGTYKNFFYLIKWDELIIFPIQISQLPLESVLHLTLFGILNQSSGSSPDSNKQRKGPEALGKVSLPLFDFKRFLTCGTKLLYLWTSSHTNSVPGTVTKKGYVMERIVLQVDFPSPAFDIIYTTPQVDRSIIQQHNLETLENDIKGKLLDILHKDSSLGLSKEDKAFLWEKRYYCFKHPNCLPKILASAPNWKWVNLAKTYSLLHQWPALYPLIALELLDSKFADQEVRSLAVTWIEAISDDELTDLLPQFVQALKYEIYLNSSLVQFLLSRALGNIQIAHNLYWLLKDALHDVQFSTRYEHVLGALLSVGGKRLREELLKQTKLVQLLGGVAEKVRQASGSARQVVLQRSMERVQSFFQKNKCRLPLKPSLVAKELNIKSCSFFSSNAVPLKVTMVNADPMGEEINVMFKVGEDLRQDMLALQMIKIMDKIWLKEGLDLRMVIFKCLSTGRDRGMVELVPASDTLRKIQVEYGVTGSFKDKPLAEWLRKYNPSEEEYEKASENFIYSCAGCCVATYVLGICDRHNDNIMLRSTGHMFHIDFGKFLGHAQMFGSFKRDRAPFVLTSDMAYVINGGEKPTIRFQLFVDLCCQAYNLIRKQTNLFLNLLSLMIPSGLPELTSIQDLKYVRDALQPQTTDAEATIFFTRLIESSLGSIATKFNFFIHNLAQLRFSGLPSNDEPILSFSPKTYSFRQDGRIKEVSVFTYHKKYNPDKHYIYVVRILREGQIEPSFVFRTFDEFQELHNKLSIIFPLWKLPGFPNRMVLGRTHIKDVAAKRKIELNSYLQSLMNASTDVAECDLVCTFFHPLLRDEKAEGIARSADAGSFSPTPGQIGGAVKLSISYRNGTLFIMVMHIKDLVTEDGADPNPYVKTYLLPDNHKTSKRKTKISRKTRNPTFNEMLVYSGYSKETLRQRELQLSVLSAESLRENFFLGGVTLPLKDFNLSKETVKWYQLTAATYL

[18] = target: Serine/threonine-protein kinase TAO3 (Homo sapiens, UniProt Q9H2K8); assay: Inhibition of recombinant human TAO3 N47S mutant (1 to 411 residues) using myelin basic protein as substrate incubated for 40 mins in presence of [gamma33P]ATP by radiometric scintillation counting analysis
Sequence of Serine/threonine-protein kinase TAO3 (Q9H2K8 whole entry, the tested form may be a part): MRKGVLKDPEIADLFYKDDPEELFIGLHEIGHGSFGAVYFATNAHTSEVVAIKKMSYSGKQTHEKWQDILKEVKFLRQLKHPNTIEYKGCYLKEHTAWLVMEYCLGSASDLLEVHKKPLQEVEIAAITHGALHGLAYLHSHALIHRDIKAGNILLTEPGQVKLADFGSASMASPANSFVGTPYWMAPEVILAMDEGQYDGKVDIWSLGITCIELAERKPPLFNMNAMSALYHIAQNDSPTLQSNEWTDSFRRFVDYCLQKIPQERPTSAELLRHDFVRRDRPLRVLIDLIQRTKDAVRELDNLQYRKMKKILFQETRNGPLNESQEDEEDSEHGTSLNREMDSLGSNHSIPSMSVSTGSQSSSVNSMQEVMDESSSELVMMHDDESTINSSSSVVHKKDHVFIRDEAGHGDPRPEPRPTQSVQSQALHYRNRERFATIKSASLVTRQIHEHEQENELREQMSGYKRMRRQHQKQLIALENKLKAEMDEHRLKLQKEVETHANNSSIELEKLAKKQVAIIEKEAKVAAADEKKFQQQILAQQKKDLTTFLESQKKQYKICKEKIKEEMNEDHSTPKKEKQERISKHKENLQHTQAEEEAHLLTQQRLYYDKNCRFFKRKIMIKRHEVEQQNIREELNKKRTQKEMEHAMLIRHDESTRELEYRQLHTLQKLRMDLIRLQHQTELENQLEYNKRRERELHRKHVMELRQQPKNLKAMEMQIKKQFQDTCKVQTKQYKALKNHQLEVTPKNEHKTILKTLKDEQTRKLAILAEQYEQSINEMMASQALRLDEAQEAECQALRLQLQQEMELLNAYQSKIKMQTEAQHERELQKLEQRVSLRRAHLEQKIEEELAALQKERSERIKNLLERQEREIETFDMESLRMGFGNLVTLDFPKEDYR

[19] = target: Mitogen-activated protein kinase kinase kinase 5 (Homo sapiens, UniProt Q99683); assay: Inhibition of human recombinant ASK1 (649 to 946 residues) using myelin as substrate incubated for 40 mins in presence of [gamma-33ATP] by radiometric scintillation counting analysis
[20] = target: Insulin receptor-related protein (Homo sapiens, UniProt P14616); assay: Inhibition of human recombinant IRR (943 to 1266 residues) using myelin basic protein as substrate after 40 mins by [gamma-33ATP] by radiometric scintillation counting analysis
TGF-beta receptor type-2 = TGF-beta receptor type-2 (Homo sapiens, UniProt P37173); assay: Inhibition of recombinant human TGFBR2 (188 to end residues) using MBP as substrate incubated for 120 mins in presence of [gamma33P]ATP by radiometric scintillation counting analysis
Sequence of TGF-beta receptor type-2 (P37173 whole entry, the tested form may be a part): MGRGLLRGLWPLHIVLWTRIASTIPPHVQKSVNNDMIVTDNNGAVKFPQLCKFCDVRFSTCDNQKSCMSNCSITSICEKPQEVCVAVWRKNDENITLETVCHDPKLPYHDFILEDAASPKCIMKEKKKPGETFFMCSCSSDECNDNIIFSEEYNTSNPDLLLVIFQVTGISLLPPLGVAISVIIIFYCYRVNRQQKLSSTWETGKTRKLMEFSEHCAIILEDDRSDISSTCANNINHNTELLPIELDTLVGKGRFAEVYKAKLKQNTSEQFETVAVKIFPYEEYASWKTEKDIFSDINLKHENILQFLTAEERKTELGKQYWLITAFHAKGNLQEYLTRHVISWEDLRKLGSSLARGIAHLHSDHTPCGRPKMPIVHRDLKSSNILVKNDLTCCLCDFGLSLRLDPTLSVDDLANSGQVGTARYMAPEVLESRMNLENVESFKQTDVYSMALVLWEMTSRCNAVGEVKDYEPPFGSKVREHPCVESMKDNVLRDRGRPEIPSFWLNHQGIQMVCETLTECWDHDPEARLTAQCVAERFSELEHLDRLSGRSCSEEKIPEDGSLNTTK

CDK4/Cyclin D3 = CDK4/Cyclin D3 (Homo sapiens, UniProt P11802); assay: Inhibition of recombinant full length human CDK4/CyclinD3 using Rb fragment as substrate incubated for 40 mins in presence of [gamma-33ATP] by radiometric scintillation counting analysis; assay type: protein-complex assay
[21] = target: Calcium/calmodulin-dependent protein kinase kinase 2 (Homo sapiens, UniProt Q96RR4, T85S); assay: Inhibition of recombinant full length human CaMKK2 T85S mutant using calmodulin as substrate incubated for 40 mins in presence of [gamma-33ATP] by radiometric scintillation counting analysis
Focal adhesion kinase 1 = Focal adhesion kinase 1 (Homo sapiens, UniProt Q05397); assay: Inhibition of recombinant human FAK (411 to 686 residues) using EEEEYEEEEEEYY as substrate after 40 mins in presence of [gamma-33ATP] by radiometric scintillation counting analysis
[22] = target: Dual specificity mitogen-activated protein kinase kinase 2 (Homo sapiens, UniProt P36507); assay: Inhibition of recombinant full length human MEK2 using MBP as substrate incubated for 40 mins in presence of [gamma-33ATP by radiometric scintillation counting analysis
[23] = target: Inhibitor of nuclear factor kappa-B kinase subunit beta (Homo sapiens, UniProt O14920); assay: Inhibition of recombinant full length human IKKbeta using peptide substrate after 40 mins by [gamma-33ATP] by radiometric scintillation counting analysis

Measured: IC50

CN(C)c1ccc(C(=O)Nc2cccc(NC(=O)COc3ccc4c(=O)ccoc4c3)c2)cc1
> 10 µM: all assays above
